These results are taken from US20240317718A1, “SUBSTITUTED HETEROCYCLIC COMPOUNDS” (BRISTOL-MYERS SQUIBB COMPANY, priority 2021, published 2024).

For one series, the system named is Caco-2 cells. The conditions noted are these: human, Caco-2, 2 h, 3 μM, pH 7.4.
The subject of series [1] is IFNα-induced pSTAT5 (Tyk2-mediated signal transduction). The experiment in a line: IFNα-induced STAT phosphorylation in human whole blood. The following applies: 1 h incubation with compound, 1000 U/mL IFNα A/D for 15 min, CD3 positive population, read-out: Human Whole blood IFNa pSTAT5 IC50. It is filed as cell-based. On the procedure: IFNα-Induced STAT Phosphorylation in Human Whole Blood
After an hour long incubation with compound, human whole blood (drawn with ACD-A as anticoagulant) was stimulated with 1000 U/mL recombinant human IFNα A/D (R&D Systems 11200-2) for 15 min. The stimulation was stopped by adding Fix/Lyse buffer (BD 558049). Cells were stained with a CD3 FITC antibody (BD 555916), washed, and permeabilized on ice using Perm III buffer (BD 558050). Cells were then stained with an Alexa-Fluor 647 pSTAT5 (pY694) antibody (BD 612599) for 60 min prior to analysis on the iQue Plus. The amount of pSTAT5 expression was quantitated by median fluorescence intensity after gating on the CD3 positive population.

Another series in a line: in vitro. The conditions noted are these: human, Caco-2, pH 7.4.

For the molecule `[2H]C([2H])([2H])NC(=O)c1nnc(NC(=O)C2CC2)cc1Nc1cccc(-c2noc(COCC)n2)c1OC` [Example 3, 6-cyclopropaneamido-4-({3-[5-(ethoxymethyl)-1,2,4-oxadiazol-3-yl]-2-methoxyphenyl}amino)-N-(^2H3)methylpyridazine-3-carboxamide], the “CACO2 (A-B)” value in the series on Caco-2 cells was determined as 553 nm/s.
For `[2H]C([2H])([2H])NC(=O)c1nnc(NC(=O)C2CC2)cc1Nc1cccc(-c2noc(CCOC)n2)c1OC` [Example 4, 6-cyclopropaneamido-4-({2-methoxy-3-[5-(2-methoxyethyl)-1,2,4-oxadiazol-3-yl]phenyl}amino)-N-(^2H3)methylpyridazine-3-carboxamide], in the series on Caco-2 cells, the “CACO2 (A-B)” value amounted to 591 nm/s.
Same read-out and setting: the figure for `[2H]C([2H])([2H])NC(=O)c1nnc(NC(=O)C2CC2)cc1Nc1cccc(-c2cc(C)ncn2)c1OC` [Example 8, 6-cyclopropaneamido-4-{[2-methoxy-3-(6-methylpyrimidin-4-yl)phenyl]amino}-N-(^2H3)methylpyridazine-3-carboxamide] is 460 nm/s; for `[2H]C([2H])([2H])NC(=O)c1nnc(NC(=O)C2CC2)cc1Nc1cccc(-c2ncns2)c1OC` [Example 9, 6-cyclopropaneamido-4-{[2-methoxy-3-(1,2,4-thiadiazol-5-yl)phenyl]amino}-N-(^2H3)methylpyridazine-3-carboxamide] it is 499 nm/s.
The same measure, in the same setting: the figure for `[2H]C([2H])([2H])NC(=O)c1nnc(NC(=O)C2CC2)cc1Nc1cccc(-c2cnc(F)cn2)c1OC` [Example 10, 6-cyclopropaneamido-4-{[3-(5-fluoropyrazin-2-yl)-2-methoxyphenyl]amino}-N-(^2H3)methylpyridazine-3-carboxamide] is 513 nm/s.
Same read-out and setting: under `[2H]C([2H])([2H])NC(=O)c1nnc(NC(=O)C2CC2)cc1Nc1cccc(-c2cnc(C3CC3)cn2)c1OC` [Example 11, 6-cyclopropaneamido-4-{[3-(5-cyclopropylpyrazin-2-yl)-2-methoxyphenyl]amino}-N-(^2H3)methylpyridazine-3-carboxamide] stands 270 nm/s; under `[2H]C([2H])([2H])NC(=O)c1nnc(NC(=O)C2CC2)cc1Nc1cccc(-c2cnc([N+](=O)[O-])cn2)c1OC` [Example 12, 6-cyclopropaneamido-4-{[2-methoxy-3-(5-nitropyrazin-2-yl)phenyl]amino}-N-(^2H3)methylpyridazine-3-carboxamide], 16 nm/s.
For `[2H]C([2H])([2H])NC(=O)c1nnc(NC(=O)C2CC2)cc1Nc1cccc(-c2nc(C)ns2)c1OC` [Example 13, 6-cyclopropaneamido-4-{[2-methoxy-3-(3-methyl-1,2,4-thiadiazol-5-yl)phenyl]amino}-N-(^2H3)methylpyridazine-3-carboxamide], the “CACO2 (A-B)” value with Caco-2 cells stood at 211 nm/s.
Regarding `[2H]C([2H])([2H])NC(=O)c1nnc(NC(=O)C2CC2)cc1Nc1nccc(-c2ncns2)c1OC` [Example 41, 6-cyclopropaneamido-4-{[3-methoxy-4-(1,2,4-thiadiazol-5-yl)pyridin-2-yl]amino}-N-(^2H3)methylpyridazine-3-carboxamide], the IC50 in series [1] came to 175 nM. In “in vitro”, the Papp A→B at 2 h, 3 μM stood at 27.7 ×10⁻⁶ cm/s and the efflux ratio at 2 h, 3 μM was 0.4.
The like results for `[2H]C([2H])([2H])NC(=O)c1nnc(NC(=O)C2CC2)cc1Nc1nccc(-c2cnn(C(F)F)c2)c1OC` [Example 42, 6-cyclopropaneamido-4-({4-[1-(difluoromethyl)-1H-pyrazol-4-yl]-3-methoxypyridin-2-yl}amino)-N-(^2H3)methylpyridazine-3-carboxamide] were, in that order, 193 nM, 26.6 ×10⁻⁶ cm/s and 0.4.
The like results for `[2H]C([2H])([2H])NC(=O)c1nnc(NC(=O)C2CC2)cc1Nc1cccc(-c2noc(CC)n2)c1OC` [Example 43, 6-cyclopropaneamido-4-{[3-(5-ethyl-1,2,4-oxadiazol-3-yl)-2-methoxyphenyl]amino}-N-(^2H3)methylpyridazine-3-carboxamide] were, in that order, 443 nM, 24.2 ×10⁻⁶ cm/s and 0.8.
